Experiments:
[1] = Liquid; for speed of sound: Sing-around technique in a fixed-path interferometer; for mass density: Vibrating tube method; for viscosity: Capillary tube (Ostwald / Ubbelohde) method
[2] = refractive index (Na D-line) (dimensionless); conditions: 101.33 kPa, Liquid, Standard Abbe refractometry
[3] = xn = mol fraction of the nth substance listed; conditions: 298.15 K, 101 kPa, Liquid; for speed of sound: Sing-around technique in a fixed-path interferometer; for mass density: Vibrating tube method
[4] = refractive index (Na D-line) (dimensionless); xn = mol fraction of the nth substance listed; conditions: 298.15 K, 101 kPa, Liquid, Standard Abbe refractometry

CC(C)O [propan-2-ol]
[1], 298.15 K, 101 kPa
Conditions | mass density [kg/m3] | speed of sound [m/s]
– | 780.98 | 1139

Conditions | refractive index
[2], 298.15 K | 1.375

CC(C)O [propan-2-ol] + CCCn1cc[n+](C)c1.O=S(=O)([N-]S(=O)(=O)C(F)(F)F)C(F)(F)F
x1 = 1
Conditions | mass density [kg/m3] | refractive index | speed of sound [m/s]
[3] | 780.98 | – | 1139
[4] | – | 1.375 | –

CCCn1cc[n+](C)c1.O=S(=O)([N-]S(=O)(=O)C(F)(F)F)C(F)(F)F + CO
Conditions | mass density, [3] [kg/m3] | refractive index, [4] | speed of sound, [3] [m/s]
x2 = 0 | 1474.44 | 1.42525 | 1232
x2 = 0.099 | 1463.12 | 1.4237 | 1228
x2 = 0.2012 | 1449.69 | 1.42185 | 1223
x2 = 0.2973 | 1434.29 | 1.41964 | 1218
x2 = 0.4068 | 1411.9 | 1.41652 | 1211
x2 = 0.5067 | 1385.1 | 1.41274 | 1203
x2 = 0.601 | 1351.31 | 1.40806 | 1192
x2 = 0.6936 | 1305.17 | 1.40193 | 1179
x2 = 0.7948 | 1228.8 | 1.39113 | 1159
x2 = 0.9009 | 1085.51 | 1.37097 | 1129
x2 = 0.9499 | 972.1 | 1.35417 | 1115

CCCO [propan-1-ol]
[1], 298.15 K, 101 kPa
Conditions | mass density [kg/m3] | speed of sound [m/s]
– | 800.09 | 1207

Conditions | refractive index
[2], 298.15 K | 1.38307

CCCn1cc[n+](C)c1.O=S(=O)([N-]S(=O)(=O)C(F)(F)F)C(F)(F)F
[1], 101.33 kPa
Conditions | mass density [kg/m3] | speed of sound [m/s] | viscosity [mPa·s]
293.15 K | 1479.39 | 1243 | –
298.15 K | 1474.44 | 1232 | 43.7
303.15 K | 1469.5 | 1221 | 35.68
308.15 K | 1464.58 | 1210 | 29.51
313.15 K | 1459.67 | 1199 | 24.77
318.15 K | 1454.78 | 1188 | 21.01
323.15 K | 1449.91 | 1178 | 18.04
328.15 K | 1445.06 | 1168 | 15.59
333.15 K | 1440.23 | 1157 | 13.63
338.15 K | 1435.42 | 1147 | 12.02
343.15 K | 1430.62 | 1137 | 10.66

[2]
Conditions | refractive index
293.15 K | 1.42669
298.15 K | 1.42525
303.15 K | 1.42378
308.15 K | 1.42224
313.15 K | 1.42076
318.15 K | 1.41926
323.15 K | 1.41776
328.15 K | 1.41625
333.15 K | 1.41479
338.15 K | 1.41334
343.15 K | 1.41185

CCCn1cc[n+](C)c1.O=S(=O)([N-]S(=O)(=O)C(F)(F)F)C(F)(F)F + CC(C)O
Conditions | mass density, [3] [kg/m3] | refractive index, [4] | speed of sound, [3] [m/s]
x2 = 0 | 1474.44 | 1.42525 | 1232
x2 = 0.0493 | 1463.7 | 1.42452 | 1228
x2 = 0.0921 | 1454.1 | 1.42385 | 1226
x2 = 0.291 | 1401.23 | 1.42016 | 1212
x2 = 0.4093 | 1360.46 | 1.41732 | 1202
x2 = 0.5071 | 1318.46 | 1.41439 | 1191
x2 = 0.6113 | 1262.2 | 1.41043 | 1178
x2 = 0.6964 | 1203.91 | 1.40624 | 1166
x2 = 0.803 | 1106.76 | 1.39926 | 1148
x2 = 0.9009 | 979.02 | 1.39013 | 1135
x2 = 0.9503 | 892.06 | 1.38375 | 1134

CCO [ethanol] + CCCn1cc[n+](C)c1.O=S(=O)([N-]S(=O)(=O)C(F)(F)F)C(F)(F)F
x1 = 1
Conditions | mass density [kg/m3] | refractive index | speed of sound [m/s]
[3] | 785.33 | – | 1144
[4] | – | 1.35929 | –

CCCn1cc[n+](C)c1.O=S(=O)([N-]S(=O)(=O)C(F)(F)F)C(F)(F)F + CCCO
Conditions | mass density, [3] [kg/m3] | refractive index, [4] | speed of sound, [3] [m/s]
x2 = 0 | 1474.44 | 1.42525 | 1232
x2 = 0.0787 | 1457.82 | 1.42424 | 1228
x2 = 0.1022 | 1452.69 | 1.42391 | 1227
x2 = 0.247 | 1417.04 | 1.42164 | 1220
x2 = 0.39 | 1372.22 | 1.41887 | 1212
x2 = 0.442 | 1352.74 | 1.41758 | 1208
x2 = 0.4877 | 1333.71 | 1.41661 | 1205
x2 = 0.569 | 1294.62 | 1.41422 | 1198
x2 = 0.6455 | 1250.12 | 1.41148 | 1191
x2 = 0.703 | 1209.58 | 1.40897 | 1187
x2 = 0.75 | 1170.92 | 1.40667 | 1183
x2 = 0.8048 | 1117.65 | 1.40345 | 1179
x2 = 0.8492 | 1066.16 | 1.40025 | 1178

CCO [ethanol]
[1], 298.15 K, 101 kPa
Conditions | mass density [kg/m3] | speed of sound [m/s]
– | 785.33 | 1144

Conditions | refractive index
[2], 298.15 K | 1.35929

CO [methanol] + CCCn1cc[n+](C)c1.O=S(=O)([N-]S(=O)(=O)C(F)(F)F)C(F)(F)F
x1 = 1
Conditions | mass density [kg/m3] | refractive index | speed of sound [m/s]
[3] | 786.59 | – | 1103
[4] | – | 1.32648 | –

CO [methanol]
[1], 298.15 K, 101 kPa
Conditions | mass density [kg/m3] | speed of sound [m/s]
– | 786.59 | 1103

Conditions | refractive index
[2], 298.15 K | 1.32648

CCCn1cc[n+](C)c1.O=S(=O)([N-]S(=O)(=O)C(F)(F)F)C(F)(F)F + CCO
Conditions | mass density, [3] [kg/m3] | refractive index, [4] | speed of sound, [3] [m/s]
x2 = 0 | 1474.44 | 1.42525 | 1232
x2 = 0.053 | 1465.87 | 1.42443 | 1230
x2 = 0.099 | 1458.19 | 1.42378 | 1227
x2 = 0.1914 | 1441.04 | 1.42214 | 1223
x2 = 0.2948 | 1418.06 | 1.42008 | 1216
x2 = 0.3909 | 1391.82 | 1.41788 | 1209
x2 = 0.4992 | 1354.59 | 1.41421 | 1200
x2 = 0.5912 | 1313.64 | 1.41045 | 1190
x2 = 0.6978 | 1249.77 | 1.4045 | 1176
x2 = 0.7938 | 1167.28 | 1.39689 | 1162
x2 = 0.895 | 1033.88 | 1.38426 | 1146
x2 = 0.9431 | 940.65 | 1.37524 | 1142

CCCO [propan-1-ol] + CCCn1cc[n+](C)c1.O=S(=O)([N-]S(=O)(=O)C(F)(F)F)C(F)(F)F
x1 = 1
Conditions | mass density [kg/m3] | refractive index | speed of sound [m/s]
[3] | 800.09 | – | 1207
[4] | – | 1.38307 | –

Source: the NIST ThermoML archive (doi:10.1016/j.jct.2011.08.028)
